Data set [1] has as its target dipalmitoyl phosphatidylcholine (DPPC). Description: Plasmon resonance (Biacore 3000) binding of lipid liposomes to peptide film. To be noted: DPPC liposomes over peptide film on CM5 chip, 37° C.; read-out: dissociation constant KD (koff/kon). The procedure: (§1) Super Mini-B peptide was also characterized in terms of its binding (association) affinity for lipids by plasmon resonance using a Biacore 3000 system (Biacore, Uppsala, Sweden). Peptide self-films were chemically-linked using a CM5 sensor chip (BR-1000-14, research grade), and lipid liposomes in running buffer were flowed over the chip to determine the degree of specific lipid association with the peptide film at 37° C. The off and on rates and dissociation constant KD (KD=koff/kon) were calculated by BIAevaluation Software Version 4.1.

Data set [2] concerns the target DEPN-8. Described as above. The following applies: DEPN-8 liposomes over peptide film on CM5 chip, 37° C.; read-out: dissociation constant KD (koff/kon). The procedure: as §1
Data set [3] is described as follows: Surface activity on pulsating bubble surfactometer (minimum surface tension). It is filed as physicochemical. The following applies: 37° C., 20 cycles/min, 50% area compression, lipid […] except SLM (1.0 mg/ml). The procedure: Surfactant compositions were formulated using various molar or wt ratios of lipid analogs or naturally occurring lipids, with the addition of native lung surface proteins or synthetic peptides, and optionally a saturated free fatty acid in the indicated wt percentage based on the total weight of the intermediate lipid formulation. Surfactant compositions were dispersed in 0.15M NaCl+2 mM CaCl2 and placed in a sample chamber mounted on the pulsator unit of a bubble surfactometer. All surfactants were studied at a lipid concentration of 2.5 mg/ml, and in addition a mixture of synthetic ester-linked phospholipids (SLM) plus Super Mini-B was studied at a lipid concentration of 1 mg/ml.
A tiny air bubble was formed and pulsated between maximum and minimum radii of 0.55 and 0.4 mm, respectively, while the pressure drop across the air-water interface of the bubble was measured with a precision transducer. Surface tension was calculated from the measured pressure drop at minimum radius (0.4 mm) from the Laplace equation (Enhorning, “Pulsating Bubble Technique for Evaluation of Pulmonary Surfactant,” J Appl Physiol 43:198-203 (1977); Hall et al., “Approximations in the Measurement of Surface Tension with the Oscillating Bubble Surfactometer,” J Appl Physiol 75:468-477 (1993), each of which is hereby incorporated by reference in its entirety).
The high surface activity of synthetic lung surfactants containing DEPN-8 or 9:1 DEPN-8:PG-A or 9:1 DEPN-8:PG-B plus 1.5% by weight of Mini-B, FK20, or F4K is shown in Table 1. Activity is also shown for mixtures containing two glycerophospholipids found in endogenous lung surfactant, 8:2 (molar ratio) dipalmitoyl phosphatidylcholine (DPPC) and palmitoyl-oleoyl phosphatidylglycerol (POPG), with or without added synthetic peptides. Also studied is a synthetic lipid mixture containing 16:10:6:1:2 (by weight) DPPC, palmitoyl-oleoyl-phosphatidylcholine (POPC), POPG, palmitoyl-oleoyl-phosphatidylethanolamine (POPE), and cholesterol combined with Super Mini B (SEQ ID NO: 13). The surface activity of DEPN-8+1.5% bovine SP-B/C (mixture of bovine surfactant proteins B/C purified on a column from extracted calf lung surfactant) is additionally shown as a positive control. As described in the preceding paragraph, the surface activity measurements in Table 1 were obtained with a pulsating bubble surfactometer in vitro. Measurements of surface activity on this instrument reflect the combined effects of adsorption and dynamic film compression at a cycling rate (20 cycles/min), temperature (37° C.), and area compression (50% compression from maximum to minimum area) relevant for the mammalian lungs in vivo (Notter, Lung Surfactants: Basic Science and Clinical Applications, Marcel Dekker, Inc, New York (2000); Enhorning, “Pulsating Bubble Technique for Evaluation of Pulmonary Surfactant,” J Appl Physiol 43:198-203 (1977); Notter et al., “Pulmonary Surfactant: Physical Chemistry, Physiology and Replacement,” Rev Chem Eng 13:1-118 (1997), each of which is hereby incorporated by reference in its entirety). Prior publications have shown that assessments of surface activity on the bubble apparatus correlate well with the physiological activity of exogenous surfactants in animal lungs (see Notter, Lung Surfactants: Basic Science and Clinical Applications, Marcel Dekker, Inc, New York (2000); Notter et al., “Pulmonary Surfactant: Physical Chemistry, Physiology and Replacement,” Rev Chem Eng 13:1-118 (1997); Holm et al., “Effects of Hemoglobin and Cell Membrane Lipids on Pulmonary Surfactant Activity,” J Appl Physiol 63:1434-1442 (1987), each of which is hereby incorporated by reference in its entirety). […] The activity of these surfactant formulations of the present invention also approached or exceeded the positive control DEPN-8+1.5% bovine SP-B/C. […]

Take “FPIPLPYCWLCRALIKRIQAMIPKGGRMLPQLVCRLVLRCS [Super Mini-B]”: the Kd turned out to be 0.769 µM in data set [1] and 0.063 µM in data set [2].
With `CCCCCCCCCCCCCCCCOCC(COP(=O)(O)CCC[N+](C)(C)C)OCCCCCCCCCCCCCCCC` (racemic) [DEPN-8, [(±)-trimethyl(3-phosphonopropyl)ammonium, mono(2,3-bis(hexadecyloxy)propyl ester]], in data set [3] (0.5 min pulsation), the “Surface tension at minimum bubble radius at time 0.5 min” value worked out at 27 ± 2 mN/m. The “Surface tension at minimum bubble radius at time 1 min” value in data set [3] (1 min pulsation) came out at 21 ± 2 mN/m. The “Surface tension at minimum bubble radius at time 2 min” value in data set [3] (2 min pulsation) turned out to be 14 ± 2 mN/m. In addition, in data set [3] (5 min pulsation), the “Surface tension at minimum bubble radius at time 5 min” value is given as 6 ± 1 mN/m. The “Surface tension at minimum bubble radius at time 10 min” value in data set [3] (10 min pulsation) was found to be 2 ± 1 mN/m. In addition, the “Surface tension at minimum bubble radius at time 15 min” value in data set [3] (15 min pulsation) is below 1 mN/m. The “Surface tension at minimum bubble radius at time […]” value in data set [3] ([…] pulsation) came to 32 ± 2 mN/m.

For the origin of these results see US8563683B2, “Synthetic lung surfactant and use thereof” (University of Rochester, priority 2006, dated 2013).
